{"source": "patent US9012489B2", "about": "“Phenyl-3-aza-bicyclo[3.1.0]hex-3-yl-methanones and the use thereof as medicament” (Boehringer Ingelheim International GmbH, priority 2011, dated 2015)"}
{"target": "T1, GlyT1 transporter (Homo sapiens, UniProt P48067)", "T1 construct": "endogenously expressing the GlyT1 transporter; host or cells: SK-N-MC human neuroblastoma cells", "T1 sequence (P48067 1-706)": "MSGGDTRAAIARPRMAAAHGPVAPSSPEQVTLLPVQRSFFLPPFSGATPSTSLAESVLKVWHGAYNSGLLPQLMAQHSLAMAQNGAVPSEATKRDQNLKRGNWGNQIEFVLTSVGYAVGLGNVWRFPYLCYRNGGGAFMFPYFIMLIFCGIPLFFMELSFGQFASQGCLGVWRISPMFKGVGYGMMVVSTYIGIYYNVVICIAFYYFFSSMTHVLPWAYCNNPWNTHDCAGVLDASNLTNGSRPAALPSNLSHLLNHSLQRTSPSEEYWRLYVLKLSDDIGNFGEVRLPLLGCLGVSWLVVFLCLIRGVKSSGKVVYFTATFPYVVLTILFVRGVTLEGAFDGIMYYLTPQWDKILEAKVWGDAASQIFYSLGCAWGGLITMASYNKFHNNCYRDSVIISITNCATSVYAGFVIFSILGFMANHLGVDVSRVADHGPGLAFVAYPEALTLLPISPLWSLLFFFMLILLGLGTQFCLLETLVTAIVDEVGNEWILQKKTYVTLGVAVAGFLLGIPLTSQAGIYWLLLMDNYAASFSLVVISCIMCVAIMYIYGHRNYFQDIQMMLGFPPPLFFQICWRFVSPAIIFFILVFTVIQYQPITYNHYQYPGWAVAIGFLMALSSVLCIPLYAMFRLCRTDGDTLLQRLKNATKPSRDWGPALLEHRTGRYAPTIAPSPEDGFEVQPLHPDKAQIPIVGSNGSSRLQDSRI", "test": "GlyT1 assay: 3H-glycine uptake into SK-N-MC cells (Cytostar-T format)", "assay_type": "cell-based", "conditions": "glycine uptake in human SK-N-MC cells endogenously expressing GlyT1; 500 nM glycine, 1% DMSO, signal recorded over 60 min", "method_in_brief": "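Uptake slopes, measured over 60 min from the linear kinetic range, give IC50 from 8 compound concentrations, with 10 μM RG-1678 setting background. Substrate is 500 nM glycine (250 nM ³H, 250 nM unlabelled) in HBSS/5 mM alanine, 1% DMSO, after roughly 5-10 min compound preincubation. Cells: confluent SK-N-MC endogenously expressing human GlyT1.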", "units": {"IC50": "nM"}}
{"molecule": "CC(C)Oc1ccc(S(C)(=O)=O)cc1C(=O)N1CC2CC2(c2nc(C(F)(F)F)co2)C1", "note": "(single isomer, unassigned) [Example 111, (2-Isopropoxy-5-methanesulfonyl-phenyl)-[1-(4-trifluoromethyl-oxazol-2-yl)-3-aza-bicyclo[3.1.0]hex-3-yl]-methanone]", "IC50": 257}
{"molecule": "C[C@H](Oc1ccc(C#N)cc1C(=O)N1CC2CC2(c2noc(C(F)(F)F)n2)C1)C(F)(F)F", "note": "(single isomer, unassigned) [Example 89, 4-(2,2,2-Trifluoro-1-methyl-ethoxy)-3-[1-(5-trifluoromethyl-[1,2,4]oxadiazol-3-yl)-3-aza-bicyclo[3.1.0]hexane-3-carbonyl]-benzonitrile]", "IC50": 97}
{"molecule": "CC(Oc1ccc(C#N)cc1C(=O)N1CC2CC2(c2noc(C(F)(F)F)n2)C1)C(F)(F)F", "note": "(stereo not drawn) [Example 39, 4-(2,2,2-Trifluoro-1-methyl-ethoxy)-3-[1-(5-trifluoromethyl-[1,2,4]oxadiazol-3-yl)-3-aza-bicyclo[3.1.0]hexane-3-carbonyl]-benzonitrile]", "IC50": 143}
{"molecule": "C[C@@H](Oc1ccc(S(C)(=O)=O)cc1C(=O)N1CC2CC2(c2noc(C3CC3)n2)C1)C(F)(F)F", "note": "(single isomer, unassigned) [Example 44, [1-(5-Cyclopropyl-[1,2,4]oxadiazol-3-yl)-3-aza-bicyclo[3.1.0]hex-3-yl]-[5-methanesulfonyl-2-(2,2,2-trifluoro-1-methyl-ethoxy)-phenyl]-methanone]", "IC50": 397}
{"molecule": "C[C@H](Oc1ccc(S(C)(=O)=O)cc1C(=O)N1CC2CC2(c2noc(C3CC(F)(F)C3)n2)C1)C(F)(F)F", "note": "(single isomer, unassigned) [Example 59]", "IC50": 8}
{"molecule": "Cc1nc(C23CC2CN(C(=O)c2cc(S(C)(=O)=O)ccc2O[C@@H](C)C(F)(F)F)C3)no1", "note": "(single isomer, unassigned) [Example 8, [5-Methanesulfonyl-2-(2,2,2-trifluoro-1-methyl-ethoxy)-phenyl]-[1-(5-methyl-[1,2,4]oxadiazol-3-yl)-3-aza-bicyclo[3.1.0]hex-3-yl]-methanone]", "IC50": 474}
{"molecule": "COC1(c2nc(C34CC3CN(C(=O)c3cc(S(C)(=O)=O)ccc3O[C@H](C)C(F)(F)F)C4)no2)CC1", "note": "(mixture of isomers) [Example 119, [5-Methanesulfonyl-2-(2,2,2-trifluoro-1-methyl-ethoxy)-phenyl]-{1-[5-(1-methoxy-cyclopropyl)-[1,2,4]oxadiazol-3-yl]-3-aza-bicyclo[3.1.0]hex-3-yl}-methanone]", "IC50": 11}
{"molecule": "C[C@@H](Oc1ccc(S(C)(=O)=O)cc1C(=O)N1CC2CC2(c2cc(C(F)(F)F)on2)C1)C(F)(F)F", "note": "(single isomer, unassigned) [Example 51, [5-Methanesulfonyl-2-(2,2,2-trifluoro-1-methyl-ethoxy)-phenyl]-[1-(5-trifluoromethyl-isoxazol-3-yl)-3-aza-bicyclo[3.1.0]hex-3-yl]-methanone]", "IC50": 461}
{"molecule": "C[C@H](Oc1ccc(S(C)(=O)=O)cc1C(=O)N1CC2CC2(c2nnc(C(F)(F)F)o2)C1)C(F)(F)F", "note": "(single isomer, unassigned) [Example 127, [5-Methanesulfonyl-2-(2,2,2-trifluoro-1-methyl-ethoxy)-phenyl]-[1-(5-trifluoromethyl-[1,3,4]oxadiazol-2-yl)-3-aza-bicyclo[3.1.0]hex-3-yl]-methanone]", "IC50": 2660}
{"molecule": "C[C@H](Oc1ccc(S(C)(=O)=O)cc1C(=O)N1CC2CC2(c2ncc(C(F)(F)F)o2)C1)C(F)(F)F", "note": "(single isomer, unassigned) [Example 133, [5-Methanesulfonyl-2-(2,2,2-trifluoro-1-methyl-ethoxy)-phenyl]-[1-(5-trifluoromethyl-oxazol-2-yl)-3-aza-bicyclo[3.1.0]hex-3-yl]-methanone]", "IC50": 403}
{"molecule": "C[C@H](Oc1ccc(S(C)(=O)=O)cc1C(=O)N1CC2(C)CC2(c2noc(C(F)(F)F)n2)C1)C(F)(F)F", "note": "(mixture of isomers) [Example 157, [5-Methanesulfonyl-2-(2,2,2-trifluoro-1-methyl-ethoxy)-phenyl]-[1-methyl-5-(5-trifluoromethyl-[1,2,4]oxadiazol-3-yl)-3-aza-bicyclo[3.1.0]hex-3-yl]-methanone]", "IC50": 147}
{"molecule": "Cc1c(C23CC2CN(C(=O)c2cc(S(C)(=O)=O)ccc2O[C@H](C)C(F)(F)F)C3)noc1C(F)(F)F", "note": "(single isomer, unassigned) [Example 161]", "IC50": 9}
{"molecule": "C[C@@H](Oc1ccc(S(C)(=O)=O)cc1C(=O)N1CC2CC2(c2csc(C(F)(F)F)n2)C1)C(F)(F)F", "note": "(single isomer, unassigned) [Example 31, [5-Methanesulfonyl-2-(2,2,2-trifluoro-1-methyl-ethoxy)-phenyl]-[1-(2-trifluoromethyl-thiazol-4-yl)-3-aza-bicyclo[3.1.0]hex-3-yl]-methanone]", "IC50": 1010}
{"molecule": "C[C@H](Oc1ccc(S(C)(=O)=O)cc1C(=O)N1CC2CC2(c2noc(C3CC3)n2)C1)C(F)(F)F", "note": "(single isomer, unassigned) [Example 10, [1-(5-Cyclopropyl-[1,2,4]oxadiazol-3-yl)-3-aza-bicyclo[3.1.0]hex-3-yl]-[5-methanesulfonyl-2-(2,2,2-trifluoro-1-methyl-ethoxy)-phenyl]-methanone]", "IC50": 42}
{"molecule": "C[C@H](Oc1ccc(S(C)(=O)=O)cc1C(=O)N1CC2CC2(c2ncco2)C1)C(F)(F)F", "note": "(mixture of isomers) [Example 20, [5-Methanesulfonyl-2-(2,2,2-trifluoro-1-methyl-ethoxy)-phenyl]-(1-oxazol-2-yl-3-aza-bicyclo[3.1.0]hex-3-yl)-methanone]", "IC50": 101}
{"molecule": "Cc1nc(C23CC2CN(C(=O)c2cc(S(C)(=O)=O)ccc2O[C@@H](C)C(F)(F)F)C3)co1", "note": "(mixture of isomers) [Example 32, [5-Methanesulfonyl-2-(2,2,2-trifluoro-1-methyl-ethoxy)-phenyl]-[1-(2-methyl-oxazol-4-yl)-3-aza-bicyclo[3.1.0]hex-3-yl]-methanone]", "IC50": 26}
{"molecule": "C[C@@H](Oc1ccc(S(C)(=O)=O)cc1C(=O)N1CC2CC2(c2coc(C3CC3)n2)C1)C(F)(F)F", "note": "(single isomer, unassigned) [Example 82]", "IC50": 782}
{"molecule": "COC1(c2nc(C34CC3CN(C(=O)c3cc(S(C)(=O)=O)ccc3O[C@@H](C)C(F)(F)F)C4)no2)CC1", "note": "(mixture of isomers) [Example 116, [5-Methanesulfonyl-2-(2,2,2-trifluoro-1-methyl-ethoxy)-phenyl]-{1-[5-(1-methoxy-cyclopropyl)-[1,2,4]oxadiazol-3-yl]-3-aza-bicyclo[3.1.0]hex-3-yl}-methanone]", "IC50": 10}
{"molecule": "CCS(=O)(=O)c1ccc(O[C@H](C)C(F)(F)F)c(C(=O)N2CC3CC3(c3noc(C(F)(F)F)n3)C2)c1", "note": "(mixture of isomers) [Example 92, [5-Ethanesulfonyl-2-(2,2,2-trifluoro-1-methyl-ethoxy)-phenyl]-[1-(5-trifluoromethyl-[1,2,4]oxadiazol-3-yl)-3-aza-bicyclo[3.1.0]hex-3-yl]-methanone]", "IC50": 25}
{"molecule": "C[C@@H](Oc1ccc(S(C)(=O)=O)cc1C(=O)N1CC2CC2(c2ncc(C(F)(F)F)o2)C1)C(F)(F)F", "note": "(single isomer, unassigned) [Example 130, [5-Methanesulfonyl-2-(2,2,2-trifluoro-1-methyl-ethoxy)-phenyl]-[1-(5-trifluoromethyl-oxazol-2-yl)-3-aza-bicyclo[3.1.0]hex-3-yl]-methanone]", "IC50": 3}
{"molecule": "Cc1cc(C23CC2CN(C(=O)c2cc(S(C)(=O)=O)ccc2O[C@@H](C)C(F)(F)F)C3)no1", "note": "(mixture of isomers) [Example 52, [5-Methanesulfonyl-2-(2,2,2-trifluoro-1-methyl-ethoxy)-phenyl]-[1-(5-methyl-isoxazol-3-yl)-3-aza-bicyclo[3.1.0]hex-3-yl]-methanone]", "IC50": 15}
{"molecule": "Cc1c(C23CC2CN(C(=O)c2cc(S(C)(=O)=O)ccc2O[C@@H](C)C(F)(F)F)C3)noc1C(F)(F)F", "note": "(mixture of isomers) [Example 163]", "IC50": 16}
{"molecule": "C[C@@H](Oc1ccc(S(C)(=O)=O)cc1C(=O)N1CC2CC2(c2nnc(C(F)(F)F)o2)C1)C(F)(F)F", "note": "(single isomer, unassigned) [Example 123, [5-Methanesulfonyl-2-(2,2,2-trifluoro-1-methyl-ethoxy)-phenyl]-[1-(5-trifluoromethyl-[1,3,4]oxadiazol-2-yl)-3-aza-bicyclo[3.1.0]hex-3-yl]-methanone]", "IC50": 13}
{"molecule": "C[C@@H](Oc1ccc(S(C)(=O)=O)cc1C(=O)N1CC2CC2(c2noc(C3(C)CC3)n2)C1)C(F)(F)F", "note": "(mixture of isomers) [Example 135, [5-Methanesulfonyl-2-(2,2,2-trifluoro-1-methyl-ethoxy)-phenyl]-{1-[5-(1-methyl-cyclopropyl)-[1,2,4]oxadiazol-3-yl]-3-aza-bicyclo[3.1.0]hex-3-yl}-methanone]", "IC50": 7}
